Test results published in PMC5786788, “Antimicrobial Octapeptin C4 Analogues Active against Cryptococcus Species” (Antimicrobial Agents and Chemotherapy, 2018).
In brackets after ≈: the same amount, converted by molar mass. Where a SMILES comes first, the peptide text is derived from it. Bridges are numbered along the chain shown (N, C = ends). [ ]: non-standard residue; d: D form. The star is where a group is joined. Decanoyl(3R-OH) = CCCCCCC[C@@H](O)CC(=O)*; dDab = NCC[C@@H](N)C(=O)O; Dab = NCC[C@H](N)C(=O)O

Assays:
[1] = test system: C. neoformans H99 (cap59Δ); type: cell-based, Cryptococcus neoformans; settings: triplicate
Excerpt: The different susceptibility of C. neoformans and C. gattii to PMB compared to other pathogenic fungi such as C. albicans and A. fumigatus has been postulated to arise from differences in cell surface composition ([38]). One key difference is the presence of a negatively charged polysaccharide capsule in Cryptococcus spp. proposed to concentrate the cationic lipopeptides at the cell surface ([38]). To examine this potential interaction for the octapeptin series, a C. neoformans cap59Δ mutant strain deficient in the secretion of negatively charged glucuronoxylomannan (an α1–3-linked mannan containing β1,2 and β1,4 xylosyl substitutions, as well as β1,2-linked glucuronyl residues) ([41], [42]), was tested against octapeptin C4 in comparison to PMB.
Fungal strains were stored in 15% glycerol at −80°C until use. The fungal strains used were H99 (C. neoformans type strain) ([55]), cap59Δ (an acapsular H99 mutant) ([56]), ATCC 90113 (C. neoformans), MMRL 2651 (C. gattii), ATCC 90028 (Candida albicans), ATCC 90030 (Candida glabrata), ATCC 22019 (Candida parapsilosis), and ATCC MYA 3626 (Aspergillus fumigatus). Yeasts were cultured in liquid (1% yeast extract, 2% Bacto peptone, 2% glucose) or solid (additional 2% agar) yeast extract-peptone-dextrose (YPD) media at 30°C and maintained at 4°C for no longer than 2 weeks. A. fumigatus was prepared on potato dextrose medium at 30°C and maintained at 4°C for no longer than 2 weeks.
(§1) The MICs of the yeast strains for PMB, PME, and octapeptin C4 and its derivatives were determined in accordance with CLSI M27-A2 guidelines using YNB (Becton Dickinson, USA) medium supplemented with 10 mM ammonium sulfate and 2% glucose, a final inoculum concentration of 1.5 × 10^3 to 2.0 × 10^3 cells/ml, and incubation at 35°C for 72 h ([39]). […] The MICs for PMB, PME, and octapeptin C4 for A. fumigatus were determined in accordance with the CLSI M38-A2 guidelines ([40]) using synthetic RPMI 1640 medium (with glutamine, without bicarbonate and with phenol red; Life Technologies, USA). The final inoculum concentration was 0.4 × 10^4 to 5 × 10^4 cells/ml, with incubation at 35°C for 48 h. […] All assays were completed in triplicate. Fluconazole was used as a positive control where the MIC was determined at both 50% growth (in accordance with CLSI M27-A2 guidelines) and when there was a “no visible growth” reading.

[2] = test system: C. neoformans var. grubii; experiment: organism not typed; settings: no visible growth
Protocol: The MICs of the yeast strains for PMB, PME, and octapeptin C4 and its derivatives were determined in accordance with CLSI M27-A2 guidelines using YNB (Becton Dickinson, USA) medium supplemented with 10 mM ammonium sulfate and 2% glucose, a final inoculum concentration of 1.5 × 10^3 to 2.0 × 10^3 cells/ml, and incubation at 35°C for 72 h ([39]). […] The MICs for PMB, PME, and octapeptin C4 for A. fumigatus were determined in accordance with the CLSI M38-A2 guidelines ([40]) using synthetic RPMI 1640 medium (with glutamine, without bicarbonate and with phenol red; Life Technologies, USA). The final inoculum concentration was 0.4 × 10^4 to 5 × 10^4 cells/ml, with incubation at 35°C for 48 h. […] All assays were completed in triplicate. Fluconazole was used as a positive control where the MIC was determined at both 50% growth (in accordance with CLSI M27-A2 guidelines) and when there was a “no visible growth” reading. […]

[3] = test system: C. neoformans var. gattii; experiment: organism not typed; settings: no visible growth
Protocol: as §1

[4] = test system: C. neoformans var. neoformans; experiment: microbe, parasite or virus in culture; settings: no visible growth
Protocol: as §1

CCCCCCC[C@@H](O)CC(=O)N[C@H](CCN)C(=O)N[C@H]1CCNC(=O)[C@H](CC(C)C)NC(=O)[C@H](CCN)NC(=O)[C@H](CCN)NC(=O)[C@H](CC(C)C)NC(=O)[C@@H](Cc2ccccc2)NC(=O)[C@H](CCN)NC1=O [Octapeptin C4, octapeptin C4] ({Decanoyl(3R-OH)}-[dDab][Dab][Dab][dF]L[Dab][Dab]L; lactam 2-C (inferred); N-terminus assumed)
MIC C. neoformans H99 (cap59Δ) ([1]; Table 1, CLSI M27-A2, YNB medium, 35°C, no visible growth after 72 h): 6.25 µg/mL (≈ 5.98 µM)
MICs against various Cryptococcus strains: H99 (cap59Δ) ([1]; Table 2, values consistent across replicates): 6.25 µg/mL
MIC ([2]; strain 486 (USA)): 3.13 µg/mL (≈ 3 µM)
MIC ([2]; strain 488 (AIDS+, pre-HAART USA)): 1.56 µg/mL (≈ 1.49 µM)
MIC ([2]; strain 490 (USA)): 1.56 µg/mL (≈ 1.49 µM)
MIC ([2]; strain 496 (USA)): 1.56 µg/mL (≈ 1.49 µM)
MIC ([2]; strain 500 (USA)): 1.56 µg/mL (≈ 1.49 µM)
MIC ([2]; strain 502 (ARR3+ USA)): 3.13 µg/mL (≈ 3 µM)
MIC ([2]; strain 505 (India)): 1.56 µg/mL (≈ 1.49 µM)
MIC ([2]; strain 507 (India)): 1.56 µg/mL (≈ 1.49 µM)
MIC ([2]; strain 512 (India)): 3.13 µg/mL (≈ 3 µM)
MIC ([2]; strain 516 (India)): 3.13 µg/mL (≈ 3 µM)
MIC ([2]; strain 518 (VNI India)): 1.56 µg/mL (≈ 1.49 µM)
MIC ([2]; strain 522 (India)): 3.13 µg/mL (≈ 3 µM)
MIC ([2]; strain 525 (India)): 1.56 µg/mL (≈ 1.49 µM)
MIC ([2]; strain 1188 (Japan lung)): 3.13 µg/mL (≈ 3 µM)
MIC ([2]; strain 1189 (USA BAL/HIV)): 1.56 µg/mL (≈ 1.49 µM)
MIC ([2]; strain 1194 (Italy)): 1.56 µg/mL (≈ 1.49 µM)
MIC ([2]; strain 1196 (Botswana CSF/AIDS)): 3.13 µg/mL (≈ 3 µM)
MIC ([2]; strain 1197 (Botswana CSF/AIDS)): 3.13 µg/mL (≈ 3 µM)
MIC ([2]; strain 1199 (Uganda CSF/HIV+ VNII)): 1.56 µg/mL (≈ 1.49 µM)
MIC ([2]; strain H99O (lab strain)): 1.56 µg/mL (≈ 1.49 µM)
MIC ([3]; strain ATCC 24066 (NIH 18)): 1.56 µg/mL (≈ 1.49 µM)
MIC ([3]; strain ATCC 32269): 3.13 µg/mL (≈ 3 µM)
MIC ([3]; strain ATCC 32608 (NIH 191)): 0.78 µg/mL (≈ 0.747 µM)
MIC ([3]; strain ATCC 32609 (NIH444)): 3.13 µg/mL (≈ 3 µM)
MIC ([3]; strain ATCC 34878): 3.13 µg/mL (≈ 3 µM)
MIC ([3]; strain ATCC 34882): 6.25 µg/mL (≈ 5.98 µM)
MIC ([3]; strain B5748 (VGIV HIV India)): 3.13 µg/mL (≈ 3 µM)
MIC ([3]; strain R266 (Vancouver Island)): 1.56 µg/mL (≈ 1.49 µM)
MIC ([3]; strain R267 (Vancouver Island)): 12.50 µg/mL (≈ 12 µM)
MIC ([3]; strain R268 (Vancouver Island)): 3.13 µg/mL (≈ 3 µM)
MIC ([3]; strain R269 (Vancouver Island)): 3.13 µg/mL (≈ 3 µM)
MIC ([3]; strain R270 (Vancouver Island)): 3.13 µg/mL (≈ 3 µM)
MIC ([4]; strain WM 01.127 (USA)): 1.56 µg/mL (≈ 1.49 µM)
MIC ([4]; strain WM 02.141 (Russia)): 3.13 µg/mL (≈ 3 µM)
MIC ([4]; strain WM 02.142 (Russia)): 1.56 µg/mL (≈ 1.49 µM)
MIC ([4]; strain WM 02.143 (Russia)): 3.13 µg/mL (≈ 3 µM)
MIC ([4]; strain WM 02.37 (Canada)): 1.56 µg/mL (≈ 1.49 µM)
MIC ([4]; strain WM 02.52 (Canada)): 1.56 µg/mL (≈ 1.49 µM)
MIC ([4]; strain WM 04.168 (Chile)): 1.56 µg/mL (≈ 1.49 µM)
MIC ([4]; strain WM 04.171 (Thailand, environmental)): 1.56 µg/mL (≈ 1.49 µM)
MIC ([4]; strain WM 05.467 (Brazil, environmental)): 1.56 µg/mL (≈ 1.49 µM)
MIC ([4]; strain WM 05.515 (Peru)): 1.56 µg/mL (≈ 1.49 µM)
MIC ([4]; strain WM 09.109 (Italy, environmental)): 1.56 µg/mL (≈ 1.49 µM)
MIC ([4]; strain WM 09.112 (USA)): 1.56 µg/mL (≈ 1.49 µM)
MIC ([4]; strain WM 10.119 (Australia)): 1.56 µg/mL (≈ 1.49 µM)
MIC ([4]; strain WM 629 (Australia)): 3.13 µg/mL (≈ 3 µM)
MIC ([4]; strain WM 1706 (Argentina)): 1.56 µg/mL (≈ 1.49 µM)
MIC ([4]; strain WM 1740 (Chile)): 3.13 µg/mL (≈ 3 µM)
MIC ([4]; strain WM 2207 (USA, environmental)): 1.56 µg/mL (≈ 1.49 µM)
MIC ([4]; strain WM 2242 (USA)): 1.56 µg/mL (≈ 1.49 µM)
MIC ([4]; strain WM 2530 (USA)): 3.13 µg/mL (≈ 3 µM)
